According to paper PMC6130618, “Bioactivity-guided isolation of anti-proliferative compounds from endemic Centaurea kilaea” (Pharmaceutical Biology, 2016):
Converted amounts (≈) assume the structure as drawn. Where two headings read alike, the source gives them in different places.

Columns and labels:
[1] = tested on: Hela (cervix adenocarcinoma); experiment: MTT anti-proliferative assay, Hela; format: cell-based; conditions: Homo sapiens, 48 h, 0.5–50 μg/mL, mean ± SD, read-out: Cytotoxic activity IC50, Hela
Experimental: (§1) Anti-proliferative activity of compounds (0.5–50 μg/mL) against three human cancer cell lines were carried out by MTT test as specified in our previous study (Sen et al. [2015]). Compounds were tested for their cytotoxic activities. Cell viability and cytotoxic activity profile of the compounds were analyzed using the MTT assay (Mosman 1983; Woerdenbag et al. [1986]; Beekman et al. [1997]). MTT is cleaved to formazan by the ‘succinate-tetrazolium reductase’ system (EC 1.3.99.1) which belongs to the mitochondrial respiratory chain and is active only in viable cells. Different cell lines were used for the determination of cytotoxic activity [HeLa; (ATCC®, CCL- 2™), MCF-7 (ATCC®, HTB-22™), PC-3; (ATCC®, CRL-1435™)]. The cells were cultured with DMEM (Dulbecco’s Modified Eagle’s Medium) supplemented with 10% FBS (Foetal bovine serum), 1% L-glutamine and antibiotic solutions (penicillin–streptomycin–amphotericin).
(§2) In vitro cytotoxicity test was done by the method of modified Woerdenbag et al. ([1986]). The MTT metabolic assay was carried out with cells seeded at a density of 1 × 10^4 cells/well in 96-well flat-bottom cell culture plates with 100 μL of opti-MEM and 24–48 h incubation at 37 °C, 5% CO2. The following day, media was aspirated and the compounds were dissolved in DMSO and diluted with medium before they were added to the cell cultures at different concentrations. Cells were incubated for 48 h at 37 °C, 5% CO2. After the incubation period, 10 μL of the MTT labelling reagent [final concentration […] (Cell proliferation kit MTT, Roche, Germany)] was added to each well. The cultures were incubated for 4–12 h in a humidified atmosphere (e.g., 37 °C, 5% CO2) and 100 μL of the solubilization buffer was added into each well. The plate was allowed to stand overnight in the incubator in a humidified atmosphere (e.g., 37 °C, 5% CO2), the formazan precipitates were solubilized. Absorbance of the formazan product was measured spectrophotometrically at 550 and 690 nm.

[2] = tested on: PC-3 (prostate adenocarcinoma); experiment: MTT anti-proliferative assay, PC-3; format: cell-based; conditions: Homo sapiens; PC-3, MCF-7 excluded; PC-3, MTT, 48 h, 0.5–50 μg/mL, mean ± SD; read-out: Cytotoxic activity IC50, PC-3
Experimental: as §1, §2

[3] = tested on: MCF-7 (breast adenocarcinoma); experiment: MTT anti-proliferative assay, MCF-7; format: cell-based; conditions: Homo sapiens, MCF7; MCF-7, MTT, 48 h, 0.5–50 μg/mL, mean ± SD; read-out: Cytotoxic activity IC50, MCF-7
Experimental: as §1, §2

[4] = MTT cytotoxicity assay, normal cell line L-929; format: cell-based; conditions: L-929 mouse fibroblast cells (normal cell line), L-929 normal mouse fibroblast, 0.5–50 μg/mL, mean ± SD, read-out: Cytotoxic activity IC50, L-929
Experimental: [Worded in the source for another cell line; this cell line is reported under the same test.] as §1, §2

[5] = tested on: human ductal carcinoma (BT-549) cells; parameters: method as in Erel et al. ([2011]); conditions: ref Erel et al. ([2011]); cited from earlier work
[6] = tested on: human malignant melanoma (SK-MEL) cells; parameters: method as in Erel et al. ([2011]); conditions: ref Erel et al. ([2011]); cited from earlier work
MCF-7 cell lines = tested on: MCF-7 cell lines; parameters: method as in Bruno et al. [2005]; Csapi et al. [2010]; conditions: ref Bruno et al. [2005], Csapi et al. [2010], cited from earlier work; for Activity on MCF-7 cell lines: same value converted

COc1ccc(-c2cc(=O)c3c(O)c(OC)c(OC)cc3o2)cc1OC [3′-O-Methyl eupatorin]
IC50 [1]: > 50 µg/mL | IC50 [2]: > 50 µg/mL | IC50 [3]: > 50 µg/mL | IC50 at 48 h [4]: > 50 µg/mL

O=c1cc(-c2ccc(O)cc2)oc2cc(O)cc(O)c12 [Apigenin]
IC50 [1]: > 50 µg/mL | IC50 [2]: 44.13 ± 0.33 µg/mL (≈ 163 µM) | IC50 [3]: > 50 µg/mL | IC50 at 48 h [4]: > 50 µg/mL

COc1cc2oc(-c3ccc(O)cc3)cc(=O)c2c(O)c1OC [Cirsimaritin]
IC50 [1]: > 50 µg/mL | IC50 [2]: 4.3 ± 1.55 µg/mL (≈ 13.7 µM) | IC50 [3]: > 50 µg/mL | IC50 at 48 h [4]: > 50 µg/mL

C=C1C(=O)O[C@@H]2/C=C(\CO)CC/C=C(\C)C[C@H](OC(=O)C(=C)[C@@H](O)CO)[C@@H]12 [Cnicin]
IC50 [1]: > 50 µg/mL | IC50 [2]: 31.5 ± 0.71 µg/mL (≈ 83.3 µM) | IC50 [3]: 3.25 ± 0.03 µg/mL (≈ 8.59 µM) | Cytotoxic effect, BT-549 [5]: cytotoxic effect | Cytotoxic effect, SK-MEL [6]: cytotoxic effect | IC50 at 48 h [4]: > 50 µg/mL | Activity on MCF-7 cell lines (MCF-7 cell lines; another study): 6.37 µg/mL | IC50 (MCF-7 cell lines; another study): 16.8 µM | Activity on MCF-7 cell lines (MCF-7 cell lines; previous study): 1.59 µg/mL | IC50 (MCF-7 cell lines; previous study): 4.2 µM

C=C[C@]1(C)C[C@H](O)[C@H]2C(=C)C(=O)O[C@@H]2[C@H]1C(=C)CO [Dehydromelitensin]
IC50 [1]: > 50 µg/mL | IC50 [2]: 25 ± 0.44 µg/mL (≈ 94.6 µM) | IC50 [3]: 28.9 ± 0.95 µg/mL (≈ 110 µM) | IC50 at 48 h [4]: > 50 µg/mL

COc1ccc(-c2cc(=O)c3c(O)c(OC)c(OC)cc3o2)cc1O [Eupatorin]
IC50 [1]: > 50 µg/mL | IC50 [2]: 35.69 ± 0.3 µg/mL (≈ 104 µM) | IC50 [3]: > 50 µg/mL | IC50 at 48 h [4]: > 50 µg/mL

COc1cc(-c2cc(=O)c3c(O)c(OC)c(O)cc3o2)ccc1O [Jaceosidin]
IC50 [1]: > 50 µg/mL | IC50 [2]: > 50 µg/mL | IC50 [3]: > 50 µg/mL | IC50 at 48 h [4]: > 50 µg/mL

CC1(C)CC[C@]2(C(=O)O)CC[C@]3(C)C(=CC[C@@H]4[C@@]5(C)CC[C@H](O)C(C)(C)[C@@H]5CC[C@]43C)[C@@H]2C1 [Oleanolic acid]
IC50 [1]: > 50 µg/mL | IC50 [2]: 45.38 ± 0.42 µg/mL (≈ 99.4 µM) | IC50 [3]: > 50 µg/mL | IC50 at 48 h [4]: > 50 µg/mL

COc1ccc(-c2cc(=O)c3c(O)c(OC)c(O)cc3o2)cc1 [Pectolinarigenin]
IC50 [1]: > 50 µg/mL | IC50 [2]: > 50 µg/mL | IC50 [3]: 35.5 ± 2.7 µg/mL (≈ 113 µM) | IC50 at 48 h [4]: > 50 µg/mL

COc1ccc(-c2cc(=O)c3c(O)c(OC)c(OC)cc3o2)cc1 [Salvigenin]
IC50 [1]: > 50 µg/mL | IC50 [2]: > 50 µg/mL | IC50 [3]: > 50 µg/mL | IC50 at 48 h [4]: > 50 µg/mL

C=C1CC[C@]2(C)CC[C@]3(C)[C@H](CC[C@@H]4[C@@]5(C)CC[C@H](O)C(C)(C)[C@@H]5CC[C@]43C)[C@H]2[C@@H]1C [Taraxasterol]
IC50 [1]: > 50 µg/mL | IC50 [2]: > 50 µg/mL | IC50 [3]: > 50 µg/mL | IC50 at 48 h [4]: > 50 µg/mL
